Source: patent publication US6498254B1, “Antiretroviral compounds and compositions” (Uniroyal Chemical Company, Inc., priority 2001, dated 2002)
In brackets after ≈: the same amount, converted by molar mass. Where two headings read alike, the source gives them in different places.

What was measured:
CMV Davis strain = assay: Activity against HCMV: virus-induced cytopathicity in HEL cells; assay type: cell-based, human cytomegalovirus (HCMV); conditions: for Antiviral % Inhibition Davis strain: estimate of percent protection of HEL cells at the compound concentration; for IC50: read-out: Antiviral IC50 (μg/ml) Davis strain
Description: Confluent HEL cells grown in […] microtiter plates were inoculated with CMV at an input of 100 PFU (plaque forming units) per well. After a one to two hour incubation period, residual virus was removed and the infected cells were further incubated with MEM (Minimal Essential Medium) (supplemented with 2% inactivated Fetal Calf Serum (FCS), […], and 0.3% sodium bicarbonate) containing varying concentrations of the test compounds. Antiviral activity was expressed as EC50 (50% effective concentration), or test compound concentration required to reduce virus-induced cytopathicity after seven days by 50% compared to the untreated control.
In some cases, the compounds had considerable cytotoxicity against HEL cells, which made determination of the EC50's difficult. In these cases, an estimate of the percent protection at the compound concentration indicated in the previous columns is given.

HIV-2 (ROD) = assay: Inhibition of HIV-2 syncytium formation in CEM cells; assay type: cell-based; conditions: for HIV-2 % Protection: protection of CEM cells against virus-induced cytopathicity at the compound concentration in the previous column; for EC50: Human immunodeficiency virus 2, CCRF-CEM, read-out: EC50 (μg/ml) HIV-2
Source text: (§1) The cell type used to determine activity of the compounds of the invention herein, i.e., the test compounds, against HIV was human T-lymphoblast (CEM) cells obtained from the American Tissue Cell Culture Collection (Rockville, Md.). HIV-1 (IIIB) was originally obtained from the culture of persistently HIV-1 infected H9 cells and was provided by R. C. Gallo and M. Popovic (National Cancer Institute, National Institutes of Health, Bethesda, Md.). HIV-2 (ROD) was originally obtained from L. M. Montagnier (Pasteur Institute, Paris, France).
(§2) To determine the antiviral activity of the test compounds, CEM cells were suspended at a cell density of approximately 300,000 cells per ml of culture medium and infected with approximately 100 CClD50 (100 CClD50 being the 50% cell culture infective dose) of HIV-1 (IIIB) or HIV-2 (ROD)). Then 100 μl of the infected cell suspensions was added to 200 μl micro titer plate wells containing 100 μl of appropriate serial (5-fold) dilutions of the test compounds. The inhibitory effect of the test compounds on HIV-1 or HIV-2 syncytium formation in CEM cells was examined microscopically on day four post infection. The 50% effective concentration (EC50) was defined as the test compound concentration that inhibits syncytium formation in the HIV-1 or HIV-2 infected cell cultures by 50%.
(§3) In some cases, the compounds had considerable cytotoxicity to CEM cells which made determination of the EC50 difficult. In these cases, the percent protection of the cells against virus-induced cytopathicity by the test compounds at the indicated compound concentration in the previous column is given.

HIV-1 (IIIB) = assay: Inhibition of HIV-1 syncytium formation in CEM cells; assay type: cell-based; conditions: for HIV-1 % Protection: protection of CEM cells against virus-induced cytopathicity at the compound concentration in the previous column; for EC50: read-out: EC50 (μg/ml) HIV-1
Source text: as §1, §2, §3

[1] = CMV-infected HEL cells, virus-induced cytopathicity after seven days
[2] = HIV-1 (IIIB) infected CEM cells, syncytium formation, day four post infection
[3] = HIV-2 (ROD) infected CEM cells, syncytium formation, day four post infection
[4] = Human betaherpesvirus 5, 168 h, CMV-infected HEL cells, virus-induced cytopathicity after seven days
[5] = Human immunodeficiency virus 1, CCRF-CEM, HIV-1 (IIIB) infected CEM cells, syncytium formation, day four post infection
[6] = Human betaherpesvirus 5, HEL, 168 h
[7] = Human immunodeficiency virus 1, IIIB, CCRF-CEM

Row | Compound | Antiviral IC50 (μg/ml) Davis strain (CMV Davis strain; [1]) [µg/mL] | Antiviral % Inhibition Davis strain (CMV Davis strain) [%] | HIV-2 % Protection (HIV-2 (ROD)) [%] | HIV-1 % Protection (HIV-1 (IIIB)) [%] | EC50 (μg/ml) HIV-1 (HIV-1 (IIIB); [2]) [µg/mL] | EC50 (μg/ml) HIV-2 (HIV-2 (ROD); [3]) [µg/mL] | IC50 (CMV Davis strain; [4]) [µg/mL] | EC50 (HIV-2 (ROD); [3]) [µg/mL] | EC50 (HIV-1 (IIIB); [5]) [µg/mL] | IC50 (CMV Davis strain; [6]) [µg/mL] | EC50 (HIV-2 (ROD)) [µg/mL] | EC50 (HIV-1 (IIIB); [7]) [µg/mL]
1 | 1,4-xylyl-bis-2-sulfonyl pyridine-N-oxide [Compound 23] | >20 | 20.0 | 37.5 | 37.5 | – | – | – | – | – | – | – | –
2 | 1,4[1,2,4,5-tetramethylbenzyl]-bis-(2′-sulfonylpyridine-N-oxide) [Compound 25] | 16.0 | – | 37.5 | – | 10.00 | – | – | – | – | – | – | –
3 | 2-(2,5-dimethylphenyl)methylsulfinyl)pyridine [Compound 163] | >50 | 0.0 | 0.0 | – | 3.25 | >100 | – | – | – | – | – | –
4 | 2-[(3-methoxy-4-benzyloxy)phenylmethylsulfonyl]pyridine-N-oxide [Compound 61] | 14.0 | – | 6.0 | 0.0 | >4 | >4.0 | – | – | – | – | – | –
5 | Cc1ccc(N)cc1C(C)S(=O)(=O)c1cccc[n+]1[O-] (centres unmarked) [Compound 1, 2-[[1-(5-amino-2-methylphenyl)ethyl]sulfonyl]pyridine-N-oxide] | – | 0.0 | – | – | – | – | > 50 | 41 (≈ 140 µM) | 20 (≈ 68.4 µM) | – | – | –
6 | CCC(C)(C)c1ccc(CS(=O)(=O)c2cccc[n+]2[O-])cc1 [Compound 40, 2-(4′-tert-pentylphenylmethylsulfonyl)pyridine-N-oxide] | – | – | – | – | – | – | 1.5 (≈ 4.7 µM) | 3.4 (≈ 10.6 µM) | 3.1 (≈ 9.7 µM) | – | – | –
7 | O=S(=O)(Cc1c2ccccc2cc2ccccc12)c1cccc[n+]1[O-] [Compound 51, 2[1-(9-anthryl)methylsulfonyl]pyridine-N-oxide] | – | – | 0.0 | 0.0 | – | – | 1.3 (≈ 3.72 µM) | > 0.8 | > 0.8 | – | – | –
8 | Cc1ccc([N+](=O)[O-])c(CS(=O)(=O)c2cccc[n+]2[O-])c1 [Compound 62, 2-[[(2-nitro-5-methylphenyl)methyl]sulfonyl]pyridine-N-oxide] | – | 20.0 | – | – | – | – | > 5 | 5 (≈ 16.2 µM) | 1.9 (≈ 6.16 µM) | – | – | –
9 | CC(C)c1cc(CS(=O)(=O)c2cccc[n+]2[O-])c(C(C)C)cc1Br [Compound 63, 2-[[[2,5-bis(1-methylethyl)-4-bromophenyl]methyl]sulfonyl]pyridine-N-oxide] | – | – | – | – | – | – | 3.7 (≈ 8.97 µM) | 2.5 (≈ 6.06 µM) | 2.3 (≈ 5.58 µM) | – | – | –
10 | O=[N+]([O-])c1cc(CS(=O)(=O)c2cccc[n+]2[O-])cc([N+](=O)[O-])c1 [Compound 65, 2-[[(3,5-dinitrophenyl)methyl]sulfonyl]pyridine-N-oxide] | – | – | – | – | – | – | 5 (≈ 14.7 µM) | 3.5 (≈ 10.3 µM) | 2.8 (≈ 8.25 µM) | – | – | –
11 | Cc1cc(CS(=O)(=O)c2cccc[n+]2[O-])ccc1[N+](=O)[O-] [Compound 66, 2-[[(3-methyl-4-nitrophenyl)methyl]sulfonyl]pyridine-N-oxide] | – | – | – | – | – | – | 5 (≈ 16.2 µM) | 2.5 (≈ 8.11 µM) | 3.1 (≈ 10.1 µM) | – | – | –
12 | Cc1ccc(CS(=O)(=O)c2cccc[n+]2[O-])cc1[N+](=O)[O-] [Compound 67, 2-[[(3-nitro-4-methylphenyl)methyl]sulfonyl]pyridine-N-oxide] | – | 20.0 | – | – | – | – | > 50 | 2.4 (≈ 7.78 µM) | 2.3 (≈ 7.46 µM) | – | – | –
13 | O=[N+]([O-])c1ccc(CS(=O)(=O)c2cccc[n+]2[O-])c(Cl)c1 [Compound 69, 2-[[(2-chloro-4-nitrophenyl)methyl]sulfonyl]pyridine-N-oxide] | – | 20.0 | – | – | – | – | > 5 | 2.9 (≈ 8.82 µM) | 2.9 (≈ 8.82 µM) | – | – | –
14 | Cc1ccc(C)c(C(Cl)S(=O)(=O)c2cccc(C)[n+]2[O-])c1 (centres unmarked) [Compound 73, 2-[(2,5-dimethylphenyl)chloromethylsulfonyl]-6-methylpyridine-N-oxide] | – | 40.0 | 0.0 | – | – | – | > 20 | > 100 | 2.8 (≈ 8.59 µM) | – | – | –
15 | Cc1ccc(C)c(CS(=O)(=O)c2cccc(Cl)[n+]2[O-])c1 [Compound 77, 2-(2,5-dimethylphenylmethylsulfonyl)-6-chloropyridine-N-oxide] | – | – | 0.0 | – | – | – | 11 (≈ 35.3 µM) | > 0.8 | 0.7 (≈ 2.25 µM) | – | – | –
16 | CCc1cccc2c(C)cc(S(=O)(=O)C(C)c3ccccc3)nc12 (centres unmarked) [Compound 107, 8-ethyl-4-methyl-2-[(1-phenylethyl)sulfonyl]quinoline] | – | 0.0 | – | – | – | – | > 20 | > 100 | 0.65 (≈ 1.91 µM) | – | – | –
17 | COCC(c1cc(C)ccc1C)S(=O)(=O)c1ccccn1 (centres unmarked) [Compound 123, 2-[[1-(2,5-dimethylphenyl)-2-methoxyethyl]sulfonyl]pyridine] | – | 40.0 | 0.0 | – | – | – | > 50 | > 100 | 60 (≈ 196 µM) | – | – | –
18 | Cc1ccc(C)c(C(C)S(=O)(=O)c2c(Cl)ccc[n+]2[O-])c1 (centres unmarked) [Compound 124, 3-chloro-2-[[1-(2,5-dimethylphenyl)ethyl]sulfonyl]pyridine-N-oxide] | – | 10.0 | 0.0 | 0.0 | – | – | > 5 | > 0.8 | > 0.8 | – | – | –
19 | Cc1ccc(C)c(C(Cl)S(=O)(=O)c2c(Cl)ccc[n+]2[O-])c1 (centres unmarked) [Compound 125, 3-chloro-2-[[chloro-(2,5-dimethylphenyl)methyl]sulfonyl]pyridine-N-oxide] | – | – | 0.0 | 0.0 | – | – | 31.5 (≈ 91 µM) | > 4 | > 4 | – | – | –
20 | [O-][n+]1cccc(Cl)c1SCc1ccccc1 [Compound 132, 3-chloro-2-[(phenylmethyl)thio]pyridine-N-oxide] | – | 0.0 | 0.0 | – | – | – | – | – | – | > 50 | > 20 | 2.4 (≈ 9.53 µM)
21 | Cc1ccc(C)c(CSc2c(Cl)ccc[n+]2[O-])c1 [Compound 133, 3-chloro-2-[[(2,5-dimethylphenyl)methyl]thio]pyridine-N-oxide] | – | – | 0.0 | – | – | – | – | – | – | 25 (≈ 89.4 µM) | > 20 | 0.14 (≈ 0.5 µM)
22 | COc1ccc(CSc2cc(C(C)(C)C)cc[n+]2[O-])cc1 [Compound 134, 4-(1,1-dimethylethyl)-2-[(4-methoxyphenyl)methylthio]pyridine-N-oxide] | – | – | 0.0 | 0.0 | – | – | > 50 | > 100 | > 20 | – | – | –
23 | [O-][n+]1cccc(Cl)c1[S+]([O-])Cc1ccccc1 (centres unmarked) [Compound 136, 3-chloro-2-[(phenylmethyl)sulfinyl]pyridine-N-oxide] | – | – | 0.0 | – | – | – | 4.7 (≈ 17.6 µM) | > 4 | 1.5 (≈ 5.6 µM) | – | – | –
24 | Cc1ccc[n+]([O-])c1SCc1c(Cl)cccc1Cl [Compound 137, 2-[[(2,6-dichlorophenyl)methyl]thio]-3-methyl-pyridine-N-oxide] | – | – | 0.0 | 0.0 | – | – | – | – | – | 28 (≈ 93.3 µM) | > 20 | > 20
25 | Cc1ccc[n+]([O-])c1[S+]([O-])Cc1c(Cl)cccc1Cl (centres unmarked) [Compound 138, 2-[[(2,6-dichlorophenyl)methyl]sulfinyl]-3-methyl-pyridine-N-oxide] | – | 20.0 | 0.0 | 0.0 | – | – | > 50 | > 100 | > 100 | – | – | –
26 | Cc1ccc[n+]([O-])c1S(=O)(=O)Cc1c(Cl)cccc1Cl [Compound 139, 2-[[(2,6-dichlorophenyl)methyl]sulfonyl]-3-methyl-pyridine-N-oxide] | – | – | 0.0 | 0.0 | – | – | 43 (≈ 129 µM) | > 20 | > 20 | – | – | –
